Species: Rattus norvegicus
Assay: Open TG-GATES - Regimen: Single
Assay type: toxicity, organism-based, Sprague-Dawley
Design: regimen Single, gender Male, age 6 weeks
Conditions: in vivo, po, route gavage; for APTT / Bas / Eos / Fbg / Hb / Ht / Lym / MCH / MCHC / MCV / Mono / Neu / PT / Plat / RBC / Ret / WBC: tissue Blood; for KIDNEY_L / KIDNEY_R / KIDNEY_TOTAL: tissue Kidney; for LIVER: tissue Liver; for ALP / ALT / AST / BUN / CRE / Ca / DBIL / GLC / IP / K / LDH / Na / PL / RALB / TBIL / TC / TG / TP / gamma-GTP: tissue Plasma
[1] = 30 mg/kg, 3 h, dose level Middle
[2] = 30 mg/kg, 6 h, dose level Middle
[3] = 30 mg/kg, 9 h, dose level Middle
[4] = 30 mg/kg, 24 h, dose level Middle
[5] = 100 mg/kg, 3 h, dose level High
[6] = 100 mg/kg, 6 h, dose level High
[7] = 100 mg/kg, 9 h, dose level High
[8] = 100 mg/kg, 24 h, dose level High

CSc1ccc2c(c1)N(CCC1CCCCN1C)c1ccccc1S2 (stereo not given) [THIORIDAZINE]
TERMINAL_BW [1]: 215.8 g
APTT [1]: 16.7 s
Bas [1]: 0%
Eos [1]: 1%
Fbg [1]: 201.2 mg/dL
Hb [1]: 12.4 g/dL
Ht [1]: 37.2%
Lym [1]: 73.8%
MCH [1]: 22.1 pg
MCHC [1]: 33.3%
MCV [1]: 66.4 fL
Mono [1]: 8.8%
Neu [1]: 16.8%
PT [1]: 12.5 s
Plat [1]: 102.7 x10_4/uL
RBC [1]: 560.6 x10_4/ul
Ret [1]: 8.6%
WBC [1]: 77.9 x10_2/uL
KIDNEY_L [1]: 1 g
KIDNEY_R [1]: 1 g
KIDNEY_TOTAL [1]: 2 g
LIVER [1]: 10.5 g
ALP [1]: 794 IU/L
ALT [1]: 37.8 IU/L
AST [1]: 66.6 IU/L
BUN [1]: 12.4 mg/dL
CRE [1]: 0.5 mg/dL
Ca [1]: 11.1 mg/dL
DBIL [1]: 0.04 mg/dL
GLC [1]: 206.6 mg/dL
IP [1]: 10.3 mg/dL
K [1]: 4.4 meq/L
LDH [1]: 91.2 IU/L
Na [1]: 139 meq/L
PL [1]: 127.2 mg/dL
RALB [1]: 3.6 g/dL
TBIL [1]: 0.4 mg/dL
TC [1]: 70.2 mg/dL
TG [1]: 43.6 mg/dL
TP [1]: 5.2 g/dL
gamma-GTP [1]: 1 IU/L
TERMINAL_BW [2]: 216.3 g
APTT [2]: 15.9 s
Bas [2]: 0%
Eos [2]: 0.6%
Fbg [2]: 230.2 mg/dL
Hb [2]: 12.5 g/dL
Ht [2]: 37.5%
Lym [2]: 74.2%
MCH [2]: 21.9 pg
MCHC [2]: 33.2%
MCV [2]: 66 fL
Mono [2]: 7.8%
Neu [2]: 17.4%
PT [2]: 12 s
RBC [2]: 569.4 x10_4/ul
Ret [2]: 8%
WBC [2]: 91.2 x10_2/uL
KIDNEY_L [2]: 1 g
KIDNEY_R [2]: 1 g
KIDNEY_TOTAL [2]: 2 g
LIVER [2]: 10.3 g
ALP [2]: 765.6 IU/L
ALT [2]: 30.2 IU/L
AST [2]: 63.2 IU/L
BUN [2]: 10.2 mg/dL
CRE [2]: 0.5 mg/dL
Ca [2]: 10.8 mg/dL
DBIL [2]: 0.022 mg/dL
GLC [2]: 208.6 mg/dL
IP [2]: 10.9 mg/dL
K [2]: 4.5 meq/L
LDH [2]: 98.4 IU/L
Na [2]: 139.4 meq/L
PL [2]: 154 mg/dL
RALB [2]: 3.8 g/dL
TBIL [2]: 0.4 mg/dL
TC [2]: 81.4 mg/dL
TG [2]: 62.8 mg/dL
TP [2]: 5.4 g/dL
gamma-GTP [2]: 1.6 IU/L
TERMINAL_BW [3]: 213.1 g
APTT [3]: 16.2 s
Bas [3]: 0%
Eos [3]: 0.4%
Fbg [3]: 213.4 mg/dL
Hb [3]: 12.6 g/dL
Ht [3]: 38%
Lym [3]: 80.6%
MCH [3]: 21.8 pg
MCHC [3]: 33.3%
MCV [3]: 65.6 fL
Mono [3]: 6%
Neu [3]: 13.2%
PT [3]: 12.3 s
Plat [3]: 108 x10_4/uL
RBC [3]: 578.8 x10_4/ul
Ret [3]: 7.8%
WBC [3]: 109.8 x10_2/uL
KIDNEY_L [3]: 0.9 g
KIDNEY_R [3]: 1 g
KIDNEY_TOTAL [3]: 1.9 g
LIVER [3]: 9.6 g
ALP [3]: 971.8 IU/L
ALT [3]: 28.2 IU/L
AST [3]: 58.2 IU/L
BUN [3]: 12.6 mg/dL
CRE [3]: 0.6 mg/dL
Ca [3]: 10.9 mg/dL
DBIL [3]: 0.018 mg/dL
GLC [3]: 215.6 mg/dL
IP [3]: 10.6 mg/dL
K [3]: 4.3 meq/L
LDH [3]: 82.4 IU/L
Na [3]: 141 meq/L
PL [3]: 148.8 mg/dL
RALB [3]: 3.8 g/dL
TBIL [3]: 0.4 mg/dL
TC [3]: 82.2 mg/dL
TG [3]: 59.6 mg/dL
TP [3]: 5.6 g/dL
gamma-GTP [3]: 1.4 IU/L
TERMINAL_BW [4]: 225.1 g
APTT [4]: 16 s
Bas [4]: 0%
Eos [4]: 1%
Fbg [4]: 215.4 mg/dL
Hb [4]: 13.4 g/dL
Ht [4]: 40.3%
Lym [4]: 77.2%
MCH [4]: 21.5 pg
MCHC [4]: 33.3%
MCV [4]: 64.6 fL
Mono [4]: 9%
Neu [4]: 12.8%
PT [4]: 12.1 s
Plat [4]: 108 x10_4/uL
RBC [4]: 623.4 x10_4/ul
Ret [4]: 8%
WBC [4]: 124.9 x10_2/uL
KIDNEY_L [4]: 1 g
KIDNEY_R [4]: 1 g
KIDNEY_TOTAL [4]: 2 g
LIVER [4]: 11.7 g
ALP [4]: 905.2 IU/L
ALT [4]: 43 IU/L
AST [4]: 69.8 IU/L
BUN [4]: 19.4 mg/dL
CRE [4]: 0.5 mg/dL
Ca [4]: 11.5 mg/dL
DBIL [4]: 0.062 mg/dL
GLC [4]: 190.2 mg/dL
IP [4]: 9.3 mg/dL
K [4]: 4.9 meq/L
LDH [4]: 89.2 IU/L
Na [4]: 139.2 meq/L
PL [4]: 163 mg/dL
RALB [4]: 4 g/dL
TBIL [4]: 0.3 mg/dL
TC [4]: 84.4 mg/dL
TG [4]: 119.8 mg/dL
TP [4]: 5.9 g/dL
gamma-GTP [4]: 1 IU/L
TERMINAL_BW [5]: 217.7 g
APTT [5]: 16.7 s
Bas [5]: 0%
Eos [5]: 1%
Fbg [5]: 205.2 mg/dL
Hb [5]: 12.6 g/dL
Ht [5]: 38.2%
Lym [5]: 70.2%
MCH [5]: 21.9 pg
MCHC [5]: 33.1%
MCV [5]: 66.3 fL
Mono [5]: 11%
Neu [5]: 17.8%
PT [5]: 12.2 s
RBC [5]: 576.8 x10_4/ul
Ret [5]: 8.6%
WBC [5]: 56.2 x10_2/uL
KIDNEY_L [5]: 1 g
KIDNEY_R [5]: 1 g
KIDNEY_TOTAL [5]: 2 g
LIVER [5]: 10.5 g
ALP [5]: 990.6 IU/L
ALT [5]: 41.8 IU/L
AST [5]: 70.2 IU/L
BUN [5]: 11.2 mg/dL
CRE [5]: 0.6 mg/dL
Ca [5]: 11 mg/dL
DBIL [5]: 0.018 mg/dL
GLC [5]: 215 mg/dL
K [5]: 4.2 meq/L
LDH [5]: 163.8 IU/L
Na [5]: 139.8 meq/L
PL [5]: 138.2 mg/dL
RALB [5]: 3.7 g/dL
TBIL [5]: 0.3 mg/dL
TC [5]: 80.2 mg/dL
TG [5]: 34.4 mg/dL
TP [5]: 5.3 g/dL
gamma-GTP [5]: 1 IU/L
TERMINAL_BW [6]: 215 g
APTT [6]: 16.9 s
Bas [6]: 0%
Eos [6]: 0.6%
Fbg [6]: 204.6 mg/dL
Hb [6]: 12.5 g/dL
Ht [6]: 37.7%
Lym [6]: 71.6%
MCH [6]: 21.6 pg
MCHC [6]: 33.1%
MCV [6]: 65.1 fL
Mono [6]: 8.6%
Neu [6]: 18.6%
PT [6]: 12.2 s
Plat [6]: 106.5 x10_4/uL
RBC [6]: 579 x10_4/ul
Ret [6]: 7.8%
WBC [6]: 84.2 x10_2/uL
KIDNEY_L [6]: 1 g
KIDNEY_R [6]: 1 g
KIDNEY_TOTAL [6]: 2 g
LIVER [6]: 9.4 g
ALP [6]: 868.4 IU/L
ALT [6]: 30.8 IU/L
AST [6]: 63.8 IU/L
BUN [6]: 8.2 mg/dL
CRE [6]: 0.5 mg/dL
Ca [6]: 10.5 mg/dL
DBIL [6]: 0.016 mg/dL
GLC [6]: 211 mg/dL
IP [6]: 10.6 mg/dL
K [6]: 4.5 meq/L
LDH [6]: 166.6 IU/L
Na [6]: 139.6 meq/L
PL [6]: 135.2 mg/dL
RALB [6]: 3.7 g/dL
TBIL [6]: 0.4 mg/dL
TC [6]: 77.8 mg/dL
TG [6]: 19.6 mg/dL
TP [6]: 5.4 g/dL
gamma-GTP [6]: 2.6 IU/L
TERMINAL_BW [7]: 210.8 g
APTT [7]: 16.3 s
Bas [7]: 0%
Eos [7]: 0.4%
Fbg [7]: 215.6 mg/dL
Hb [7]: 12.5 g/dL
Ht [7]: 38.3%
Lym [7]: 76.8%
MCH [7]: 21 pg
MCHC [7]: 32.8%
MCV [7]: 64.1 fL
Mono [7]: 7.2%
Neu [7]: 15.6%
PT [7]: 12.1 s
Plat [7]: 110.2 x10_4/uL
RBC [7]: 598.4 x10_4/ul
Ret [7]: 7.3%
WBC [7]: 80.7 x10_2/uL
KIDNEY_L [7]: 1 g
KIDNEY_R [7]: 1 g
KIDNEY_TOTAL [7]: 2 g
LIVER [7]: 9.4 g
ALP [7]: 850.6 IU/L
ALT [7]: 31.6 IU/L
AST [7]: 61.2 IU/L
BUN [7]: 9.6 mg/dL
CRE [7]: 0.5 mg/dL
Ca [7]: 10.6 mg/dL
DBIL [7]: 0.018 mg/dL
GLC [7]: 223.4 mg/dL
IP [7]: 9.8 mg/dL
K [7]: 4.2 meq/L
LDH [7]: 144.8 IU/L
Na [7]: 141.4 meq/L
PL [7]: 155.2 mg/dL
RALB [7]: 3.7 g/dL
TBIL [7]: 0.4 mg/dL
TC [7]: 84 mg/dL
TG [7]: 28.4 mg/dL
TP [7]: 5.4 g/dL
gamma-GTP [7]: 1.2 IU/L
TERMINAL_BW [8]: 217.8 g
APTT [8]: 16.1 s
Bas [8]: 0%
Eos [8]: 1%
Fbg [8]: 209 mg/dL
Hb [8]: 13.5 g/dL
Ht [8]: 40.5%
Lym [8]: 84.4%
MCH [8]: 21.5 pg
MCHC [8]: 33.4%
MCV [8]: 64.6 fL
Mono [8]: 4.6%
Neu [8]: 10%
PT [8]: 12.2 s
Plat [8]: 125.1 x10_4/uL
RBC [8]: 628 x10_4/ul
Ret [8]: 7.3%
WBC [8]: 102 x10_2/uL
KIDNEY_L [8]: 1 g
KIDNEY_R [8]: 1 g
KIDNEY_TOTAL [8]: 2.1 g
LIVER [8]: 10.9 g
ALP [8]: 952.2 IU/L
ALT [8]: 35.4 IU/L
AST [8]: 62.4 IU/L
BUN [8]: 21.4 mg/dL
CRE [8]: 0.5 mg/dL
Ca [8]: 11.2 mg/dL
DBIL [8]: 0.022 mg/dL
GLC [8]: 210.8 mg/dL
IP [8]: 9.8 mg/dL
K [8]: 4.5 meq/L
LDH [8]: 166.8 IU/L
Na [8]: 140.4 meq/L
PL [8]: 172.6 mg/dL
RALB [8]: 4.2 g/dL
TBIL [8]: 0.3 mg/dL
TC [8]: 91.4 mg/dL
TG [8]: 97.8 mg/dL
TP [8]: 6.1 g/dL
gamma-GTP [8]: 1.4 IU/L
